Assays:
Format in all cases: in vivo
Setaria faberi (SETFA) [1] = assay: greenhouse experiment, post-emergence treatment; details: application rate 3 kg/ha, scale 0 to 100
From the text: (§1) The culture containers used were plastic flowerpots containing loamy sand with approximately 3.0% of humus as the substrate. The seeds of the test plants were sown separately for each species.
(§2) For the post-emergence treatment, the test plants were first grown to a height of 3 to 15 cm, depending on the plant habit, and only then treated with the active ingredients which had been suspended or emulsified in water. For this purpose, the test plants were either sown directly and grown in the same containers, or they were first grown separately as seedlings and transplanted into the test containers a few days prior to treatment.
(§3) Depending on the species, the plants were kept at 10-25° C. or 20-35° C. The test period extended over 2 to 4 weeks. During this time, the plants were tended, and their response to the individual treatments was evaluated.
(§4) Evaluation was carried out using a scale from 0 to 100. 100 means no emergence of the plants, or complete destruction of at least the aerial moieties, and 0 means no damage, or normal course of growth. A good herbicidal activity is given at values of at least 70 and a very good herbicidal activity is given at values of at least 85.

[2] = test system: Echinochloa crus galli (ECHCG); assay: greenhouse experiment, pre-emergence treatment; details: application rate 3 kg/ha, scale 0 to 100
From the text: as §1
(§5) For the pre-emergence treatment, the active ingredients, which had been suspended or emulsified in water, were applied directly after sowing by means of finely distributing nozzles. The containers were irrigated gently to promote germination and growth and subsequently covered with transparent plastic hoods until the plants had rooted. This cover caused uniform germination of the test plants, unless this has been impaired by the active ingredients.
as §3, §4

SETIT = assay: greenhouse experiment, pre-emergence treatment; details: application rate 3 kg/ha, scale 0 to 100
From the text: as §1, §5, §3, §4

Setaria faberi (SETFA) [3] = assay: greenhouse experiment, pre-emergence treatment; details: application rate 3 kg/ha, scale 0 to 100
From the text: as §1, §5, §3, §4

[4] = test system: Alopecurus myosuroides (ALOMY); assay: greenhouse experiment, post-emergence treatment; details: application rate 3 kg/ha, scale 0 to 100
From the text: as §1, §2, §3, §4

Avena fatua (AVEFA) = assay: greenhouse experiment, post-emergence treatment; details: application rate 3 kg/ha, scale 0 to 100
From the text: as §1, §2, §3, §4

[5] = test system: Amaranthus retroflexus (AMARE); assay: greenhouse experiment, pre-emergence treatment; details: application rate 0.5 kg/ha, scale 0 to 100
From the text: as §1, §5, §3, §4

[6] = test system: Apera spica-venti (APESV); assay: greenhouse experiment, pre-emergence treatment; details: application rate 0.5 kg/ha, scale 0 to 100
From the text: as §1, §5, §3, §4

Compound	herbicidal post-emergence activity against SETFA (Setaria faberi (SETFA) [1])	herbicidal pre-emergence activity against ECHCG [2]	herbicidal pre-emergence activity against SETIT (SETIT)	also measured
CC(C)=CCN1C(=O)C(Cc2ccccc2[N+](=O)[O-])N(C)C(=O)C1Cc1ccccc1 (single isomer, unassigned) [A.2.64]	good to very good	good to very good		
CC(C)OC(=O)CN1C(=O)C(Cc2ccccc2[N+](=O)[O-])N(C)C(=O)C1Cc1ccccc1 (single isomer, unassigned) [A.2.65]	good to very good			
CN1C(=O)C(C(OS(C)(=O)=O)c2ccccc2[N+](=O)[O-])N(C)C(=O)C1Cc1ccccc1 (single isomer, unassigned) [A.2.265]	good to very good	good to very good	good to very good	
CN1C(=O)C(C(OS(C)(=O)=O)c2ccccc2[N+](=O)[O-])N(C)C(=O)C1Cc1ccccc1 (single isomer, unassigned) [A.2.267]	good to very good	good to very good	good to very good	
CN1C(=O)C(C(O[Si](C)(C)C)c2ccccc2[N+](=O)[O-])N(C)C(=O)C1Cc1ccccc1 (single isomer, unassigned) [A.2.271]			good to very good	
CC(Oc1ccc(CC2C(=O)N(C)C(Cc3ccccc3)C(=O)N2C)c([N+](=O)[O-])c1)C(=O)O (centres unmarked) [A.1.13]			good to very good	
CN1C(=O)C(Cc2ccccc2C#N)N(C)C(=O)C1Cc1ccccc1 (centres unmarked) [A.2.81]				herbicidal pre-emergence activity against SETFA (Setaria faberi (SETFA) [3]): very good (a very good herbicidal activity is given at values of at least 85)
CN1C(=O)C(Cc2ccccc2NS(C)(=O)=O)N(C)C(=O)C1Cc1ccccc1 (centres unmarked) [A.2.105]		good to very good		herbicidal post-emergence activity against ALOMY [4]: very good (a very good herbicidal activity is given at values of at least 85); herbicidal post-emergence activity against AVEFA (Avena fatua (AVEFA)): very good (a very good herbicidal activity is given at values of at least 85)
CN1C(=O)C(Cc2c(Br)cccc2[N+](=O)[O-])N(C)C(=O)C1Cc1ccccc1 (centres unmarked) [A.2.133]	good to very good	good to very good		
C#Cc1ccccc1CC1C(=O)N(C)C(Cc2ccccc2)C(=O)N1C (centres unmarked) [A.2.135]	good to very good	good to very good	good to very good	
CC(=O)OC(c1ccccc1[N+](=O)[O-])C1C(=O)N(C)C(Cc2ccccc2)C(=O)N1C (centres unmarked) [A.2.251]	good to very good			
CN1C(=O)C(C(OCc2ccccc2)c2ccccc2[N+](=O)[O-])N(C)C(=O)C1Cc1ccccc1 (centres unmarked) [A.2.255]	good to very good			
Cc1cc(-c2ccccc2CC2C(=O)N(C)C(Cc3ccccc3)C(=O)N2C)on1 (centres unmarked) [A.2.273]	good to very good	good to very good	good to very good	
C=Cc1ccccc1CC1C(=O)N(C)C(Cc2ccccc2)C(=O)N1C (centres unmarked) [A.2.274]	good to very good	good to very good		
CCS(=O)(=O)OC(c1ccccc1[N+](=O)[O-])C1C(=O)N(C)C(Cc2ccccc2)C(=O)N1C (centres unmarked) [A.2.275]	good to very good	good to very good		
COS(=O)(=O)C(c1cccnc1Br)C1C(=O)N(C)C(Cc2ccccc2)C(=O)N1C (centres unmarked) [A.5.16, methyl (5-benzyl-1,4-dimethyl-3,6-dioxopiperazin-2-yl)-(2-bromopyridin-3-yl)methanesulfonate]			good to very good	
COS(=O)(=O)C(c1ccccc1[N+](=O)[O-])C1C(=O)N(C)C(Cc2cccs2)C(=O)N1C (centres unmarked) [A.5.17, methyl [1,4-dimethyl-3,6-dioxo-5-(thiophen-2-ylmethyl)piperazin-2-yl]-(2-nitrophenyl) methanesulfonate]				herbicidal pre-emergence activity against AMARE [5]: very good (a very good herbicidal activity is given at values of at least 85); herbicidal pre-emergence activity against APESV [6]: good (A good herbicidal activity is given at values of at least 70)

Source: patent publication US8450301B2, “Piperazine compounds with a herbicidal action” (BASF SE, priority 2006, dated 2013)
